Test results reported in patent US20150024955A1, “Methods of Identifying Modulators of Dephosphorylation of Histone Deacetylase” (THE J. DAVID GLADSTONE INSTITUTES, priority 2006, published 2015).

Assays:
[1] = tested on: HDAC7 (Ser155, Ser318, Ser448 phosphorylation); assay: HDAC7 phosphorylation by Western blot with antiphospho-HDAC7 antisera in DO11.10-HDAC7-Flag cells; format: cell-based, human
Experimental: DO11.10-HDAC7-Flag cells were untreated or treated with either PMA or anti CD3 antibody for the indicated times. Total cellular extracts were prepared in 20 mM Hepes (pH 7.5), 10 mM EGTA, 22.5 mM MgCl2, 1% NP-40, 2 mM orthovanadate, 1 mM dithiothreitol, and 0.5 mM phenyl-methyl sulfonyl fluoride supplemented with protease inhibitors, and subjected to Western blot analysis.
Antibodies against mouse HDAC7 phosphorylated at serine residues 178, 344 and 479 were generated (Sigma Genosys, INC., Houston Tex. 77216-1508, USA). Briefly, rabbits were immunized with KLH-conjugated peptides. The phosphopeptides used to generate the phosphor-specific antibodies were FPLRTV[pSer]EPNLKL for P-Ser178, RPLNRTR[pSer]EPLPPS for P-Ser344 and RPLSRTQ[pSer]SPAAPV for P-Ser479. [pSer] indicates the phosphate group on the conserved serine residues. HDAC7 phospho specific antibodies were purified from crude rabbit serum by double affinity purification with nonphosphorylated and phosphorylated peptide. The corresponding serine residues can be found in human HDAC7 at amino acid positions 155, 318, and 448, respectively.
Using these antisera, the state of phosphorylation of HDAC7 following PMA treatment was assessed. […] Phosphatase treatment of immunoprecipitated HDAC7 abolished the reactivity of the different phosphor-HDAC7 antibodies confirming their specificity for phosphorylated HDAC7 (FIG. 6A).
To test the possibility that HDAC7 became dephosphorylated by a phosphatase, cells were stimulated with PMA followed by the addition of okadaic acid, a phosphatase inhibitor, for the rest of the time course. Consistent with the hypothesis that HDAC7 is dephosphorylated by a phosphatase, okadaic acid treatment led to persistent phosphorylation of HDAC7 at each site up to 24 h (FIG. 6B).
To further probe the role of myosin phosphatase in the dephosphorylation of HDAC7 in vivo, small interfering RNAs (siRNAs) specific for PP1β and MYPT1 were introduced into DO11.10 cells expressing HDAC7. With an siRNA control (siCo), HDAC7 was transiently phosphorylated in response to PMA, with a peak at 2 h, and rapidly dephosphorylated thereafter (FIG. 11B, left panel). […] Further, HDAC7 remained phosphorylated up to 8 h after PMA stimulation (FIG. 11B, right panel).

HDAC7-GFP = HDAC7-GFP subcellular localization by immunofluorescence microscopy in DO11.10 cells; format: cell-based
Experimental: DO11.10 cells (5×10^6) were nucleofected with an HDAC7-GFP expression vector together with either siRNA control or siRNAs for PP1β and MYPT1. Cells ([…]) were seeded onto poly-L-lysine-coated coverslips 12 h after nucleofection and allowed to attach for 12 h. Cells were stimulated with 10 ng/ml PMA. HDAC7 was localized by immunofluorescence microscopy with a confocal fluorescence microscope (Olympus BX60, Bio-Rad).
To determine whether the changes in HDAC7 phosphorylation affected the subcellular localization of the protein, the fate of an HDAC7-GFP fusion protein in response to PMA was followed. […] The subcellular localization of HDAC7 also closely paralleled serine 155, serine 318, and serine 448 phosphorylation. While resting cells […] nuclear exclusion of HDAC7, more than 75% of activated cells excluded HDAC7 from the nucleus at 2 hours after stimulation (FIG. 7A). However, this exclusion was transient and HDAC7 progressively returned to the nucleus over the next few hours (FIGS. 7A, 7B). Significant reimport of HDAC7-GFP into the nucleus occurred at 4 h after PMA treatment, a time course that paralleled HDAC7 dephosphorylation (FIGS. 7A, 7B). […] Phosphatases have been predicted to regulate the nucleo-cytoplasmic shuttling of other class IIa HDAC, such as HDAC4, 5, and 9 for some time but have not been identified so far. […]

Nur77 = Nur77 expression by Western blot in DO11.10 cells; conditions: after PMA treatment
Experimental: SDS-PAGE and Western blot analysis were performed according to standard procedures. Western blots were developed with the ECL detection kit (Amersham Pharmacia Biotech, Piscataway, N.J.).

Row | Structure (SMILES) | HDAC7 phosphorylation at each serine after treatment ([1]; DO11.10 stably expressing HDAC7-Flag, Western blot of immunoprecipitated HDAC7) | start of progressive decrease in HDAC7 phosphorylation after treatment ([1]; all three serine residues, total HDAC7 content unchanged) [h] | time of maximum (full) HDAC7 phosphorylation after stimulation ([1]; time course, DO11.10-HDAC7-Flag cells) [h] | percentage of cells excluding HDAC7 from the nucleus (HDAC7-GFP; 2 hours after stimulation) | percentage of cells showing nuclear exclusion of HDAC7 (HDAC7-GFP; 24 hours after stimulation) [%] | time of peak Nur77 induction (Nur77) [h] | time up to which HDAC7 remained phosphorylated after PMA stimulation ([1]; agent applied together with PMA stimulation, DO11.10-HDAC7-Flag cells)
1 | CCCCCCCCCCCCCC(=O)O[C@@H]1[C@@H](C)[C@@]2(O)[C@@H](C=C(CO)C[C@]3(O)C(=O)C(C)=C[C@@H]23)[C@@H]2C(C)(C)[C@]12OC(C)=O [PMA] | increased HDAC7 phosphorylation at each serine | 4 | 1 to 2 | more than 75% | < 20 | 2 | 
2 | C=C1[C@@H](O)[C@@H]2O[C@]3(CC[C@H](/C=C/[C@@H](C)[C@@H]4CC(C)=C[C@@]5(O[C@H](C[C@@](C)(O)C(=O)O)CC[C@H]5O)O4)O3)CC[C@H]2O[C@@H]1[C@@H](O)C[C@H](C)[C@H]1O[C@@]2(CCCCO2)CC[C@H]1C [okadaic acid] |  |  |  |  |  |  | up to 24 h
